System: serum sPLA2
Experiment: Effect of twice-a-day oral A-002 on serum sPLA2 levels in subjects with stable coronary artery disease (Example 6)
Assay type: in vivo, human
Description: The protocol for preparing standard curve, test, and quality control samples for use in the assay disclosed herein is set forth in Example 5. Samples are prepared according to this protocol, then loaded in duplicate onto a plate (Cayman catalog no. 485002 or equivalent) that has been pre-coated with a monoclonal sPLA2 antibody (“capture antibody”) that specifically binds sPLA2. In certain embodiments, the capture antibody may interact with a specific form of sPLA2, such as for example sPLA2 type IIA.
sPLA2 acetylcholinesterase:Fab′ conjugate (AChE:Fab′) (“conjugate”) (Cayman catalog no. 485000 or equivalent) is reconstituted in EIA buffer (Cayman catalog no. 400060 or equivalent). Cayman EIA buffer is 1M phosphate, pH 7.0, 1% BSA, 4M NaCl, 10 mM EDTA, and 0.1% sodium azide. Reconstituted conjugate is added to each well of the plate. The conjugate binds a different sPLA2 epitope than the capture antibody, allowing the capture antibody and the conjugate to form a “sandwich” that is immobilized on the plate. Excess reagents are washed away, and the plate is covered and incubated overnight at 2-8° C.
Prior to development, the wells are washed five to six times with wash buffer (Cayman catalog no. 400062 or equivalent). To develop the plate, Ellman's Reagent (Cayman catalog no. 400050 or equivalent) is reconstituted in water and added to each well according to manufacturer instructions. The reconstituted Ellman's Reagent must be used the same day it is prepared because it is unstable. Ellman's Reagent contains an AChE substrate. Specifically, Ellman's Reagent contains acetylthiocholine and 5,5′-dithio-bis-(2-nitrobenzoic acid). Hydrolysis of acetylthiocholine by acetylcholinesterase produces thiocholine, which reacts with 5,5′-dithio-bis-(2-nitrobenzoic acid) to produce 5-thio-2-nitrobenzoic acid. 5-thio-2-nitrobenzoic acid has a strong absorbance at 412 nm. The intensity of absorbance at this wavelength is directly proportional to the concentration of bound conjugate, which is in turn is directly proportional to the concentration of sPLA2 present (Absorbance a [AChE:Fab′ conjugate] α [sPLA2]). During the development step, the plate is shaken, preferably in the dark. In certain embodiments the development time for the assay is 0.5 to 3 hours, preferably 1 to 1.5 hours. At the end of the development period, the high sPLA2 standards should have greater yellow color development than the zero standards. Absorbance of each well is measured at 400-420 nm using a micro-well plate reader. In certain embodiments, absorbance is measured at about 405 nm.
Absorbance readings for duplicate wells are averaged, and the relative standard deviation and % CV are calculated. Standard curve data are used to generate a four parameter curve, and quality control and test samples are measured against the appropriate standard curve (i.e., the standard curve with the same serum content). In order for a test to be considered valid, variation between duplicate wells should be no more than about 25%, and negative controls (blanks) for each standard curve should have a mean absorbance of less than about 0.3.
The method disclosed herein for measuring sPLA2 levels in serum was utilized to determine the effect of administering certain sPLA2 inhibitors on sPLA2 levels in 84 human subjects. The subjects included 24 subjects with diabetes, 32 subjects with metabolic syndrome, and 75 subjects receiving statin treatment. Subjects were administered the sPLA2 inhibitor A-002, a prodrug form of A-001, twice a day at varying dosages from 50 to 500 mg. The structures of A-002and A-001 are set forth below. At two weeks and four weeks after the first administration, sPLA2 levels were measured and compared to pre-administration baseline levels.
84 subjects with stable coronary artery disease were randomized to receive placebo or A-002 via oral administration twice a day over a four week administration period. […]

[1] = 50 mg, diabetes subgroup of ITT population
[2] = 50 mg, non-diabetes subgroup of ITT population
[3] = 50 mg, statin subgroup of ITT population
[4] = 100 mg, diabetes subgroup of ITT population
[5] = 100 mg, non-diabetes subgroup of ITT population
[6] = 100 mg, statin subgroup of ITT population

## CCc1c(C(=O)C(N)=O)c2c(OCC(=O)OC)cccc2n1Cc1ccccc1 [A-002, [[3-(2-Amino-1,2-dioxoethyl)-2-ethyl-1-(phenylmethyl)-1H-indol-4-yl]oxy]acetic acid methyl ester]
50 mg, ITT population
  sPLA2 Change from baseline at week 2, Mean: -2.74 ng/mL
  sPLA2 Change from baseline at week 2, Median: -2.60 ng/mL
  sPLA2 Change from baseline at week 2, Range: -5.30 to -0.60 ng/mL
  sPLA2 Change from baseline at week 4, Mean: -2.50 ng/mL
  sPLA2 Change from baseline at week 4, Median: -2.15 ng/mL
  sPLA2 Change from baseline at week 4, Range: -6.40 to -0.60 ng/mL
  sPLA2 level, Baseline, Mean: 3.24 ng/mL
  sPLA2 level, Baseline, Median: 2.65 ng/mL
  sPLA2 level, Baseline, Range: 0.80 to 8.80 ng/mL
  sPLA2 level, Week 2, Mean: 0.89 ng/mL
  sPLA2 level, Week 2, Median: 0.45 ng/mL
  sPLA2 level, Week 2, Range: 0.20 to 4.00 ng/mL
  sPLA2 level, Week 4, Mean: 0.85 ng/mL
  sPLA2 level, Week 4, Median: 0.70 ng/mL
  sPLA2 level, Week 4, Range: 0.10 to 2.40 ng/mL
[1]
  sPLA2 Change from baseline at week 2, Mean: -2.05 ng/mL
  sPLA2 Change from baseline at week 2, Median: -2.45 ng/mL
  sPLA2 Change from baseline at week 2, Range: -2.70 to -0.60 ng/mL
  sPLA2 Change from baseline at week 4, Mean: -1.76 ng/mL
  sPLA2 Change from baseline at week 4, Median: -1.50 ng/mL
  sPLA2 Change from baseline at week 4, Range: -3.20 to -0.60 ng/mL
  sPLA2 level, Baseline, Mean: 2.45 ng/mL
  sPLA2 level, Baseline, Median: 2.65 ng/mL
  sPLA2 level, Baseline, Range: 0.80 to 3.80 ng/mL
  sPLA2 level, Week 2, Mean: 0.55 ng/mL
  sPLA2 level, Week 2, Median: 0.45 ng/mL
  sPLA2 level, Week 2, Range: 0.20 to 1.10 ng/mL
  sPLA2 level, Week 4, Mean: 0.66 ng/mL
  sPLA2 level, Week 4, Median: 0.60 ng/mL
  sPLA2 level, Week 4, Range: 0.20 to 1.20 ng/mL
[2]
  sPLA2 Change from baseline at week 2, Mean: -3.09 ng/mL
  sPLA2 Change from baseline at week 2, Median: -3.05 ng/mL
  sPLA2 Change from baseline at week 2, Range: -5.30 to -0.70 ng/mL
  sPLA2 Change from baseline at week 4, Mean: -3.03 ng/mL
  sPLA2 Change from baseline at week 4, Median: -2.80 ng/mL
  sPLA2 Change from baseline at week 4, Range: -6.40 to -0.80 ng/mL
  sPLA2 level, Baseline, Mean: 3.72 ng/mL
  sPLA2 level, Baseline, Median: 3.20 ng/mL
  sPLA2 level, Baseline, Range: 1.30 to 8.80 ng/mL
  sPLA2 level, Week 2, Mean: 1.06 ng/mL
  sPLA2 level, Week 2, Median: 0.06 ng/mL
  sPLA2 level, Week 2, Range: 0.20 to 4.00 ng/mL
  sPLA2 level, Week 4, Mean: 0.96 ng/mL
  sPLA2 level, Week 4, Median: 0.75 ng/mL
  sPLA2 level, Week 4, Range: 0.10 to 2.40 ng/mL
[3]
  sPLA2 Change from baseline at week 2, Mean: -2.74 ng/mL
  sPLA2 Change from baseline at week 2, Median: -2.60 ng/mL
  sPLA2 Change from baseline at week 2, Range: -5.30 to -0.60 ng/mL
  sPLA2 Change from baseline at week 4, Mean: -2.50 ng/mL
  sPLA2 Change from baseline at week 4, Median: -2.15 ng/mL
  sPLA2 Change from baseline at week 4, Range: -6.40 to -0.60 ng/mL
  sPLA2 level, Baseline, Mean: 3.34 ng/mL
  sPLA2 level, Baseline, Median: 2.70 ng/mL
  sPLA2 level, Baseline, Range: 0.80 to 8.80 ng/mL
  sPLA2 level, Week 2, Mean: 0.89 ng/mL
  sPLA2 level, Week 2, Median: 0.45 ng/mL
  sPLA2 level, Week 2, Range: 0.20 to 4.00 ng/mL
  sPLA2 level, Week 4, Mean: 0.85 ng/mL
  sPLA2 level, Week 4, Median: 0.70 ng/mL
  sPLA2 level, Week 4, Range: 0.10 to 2.40 ng/mL
100 mg, ITT population
  sPLA2 Change from baseline at week 2, Mean: -1.81 ng/mL
  sPLA2 Change from baseline at week 2, Median: -1.85 ng/mL
  sPLA2 Change from baseline at week 2, Range: −3.70 to +2.85 ng/ml
  sPLA2 Change from baseline at week 4, Mean: -2.55 ng/mL
  sPLA2 Change from baseline at week 4, Median: -2.50 ng/mL
  sPLA2 Change from baseline at week 4, Range: -5.70 to 0.00 ng/mL
  sPLA2 level, Baseline, Mean: 2.86 ng/mL
  sPLA2 level, Baseline, Median: 2.95 ng/mL
  sPLA2 level, Baseline, Range: 0.05 to 6.00 ng/mL
  sPLA2 level, Week 2, Mean: 0.68 ng/mL
  sPLA2 level, Week 2, Median: 0.45 ng/mL
  sPLA2 level, Week 2, Range: 0.05 to 2.90 ng/mL
  sPLA2 level, Week 4, Mean: 0.49 ng/mL
  sPLA2 level, Week 4, Median: 0.50 ng/mL
  sPLA2 level, Week 4, Range: 0.05 to 1.10 ng/mL
[4]
  sPLA2 Change from baseline at week 2, Mean: -1.11 ng/mL
  sPLA2 Change from baseline at week 2, Median: -1.80 ng/mL
  sPLA2 Change from baseline at week 2, Range: −3.00 to +2.85 ng/ml
  sPLA2 Change from baseline at week 4, Mean: -2.30 ng/mL
  sPLA2 Change from baseline at week 4, Median: -1.80 ng/mL
  sPLA2 Change from baseline at week 4, Range: -5.70 to 0.00 ng/mL
  sPLA2 level, Baseline, Mean: 2.78 ng/mL
  sPLA2 level, Baseline, Median: 2.50 ng/mL
  sPLA2 level, Baseline, Range: 0.05 to 6.00 ng/mL
  sPLA2 level, Week 2, Mean: 1.02 ng/mL
  sPLA2 level, Week 2, Median: 0.50 ng/mL
  sPLA2 level, Week 2, Range: 0.40 to 2.90 ng/mL
  sPLA2 level, Week 4, Mean: 0.48 ng/mL
  sPLA2 level, Week 4, Median: 0.40 ng/mL
  sPLA2 level, Week 4, Range: 0.05 to 1.10 ng/mL
[5]
  sPLA2 Change from baseline at week 2, Mean: -2.21 ng/mL
  sPLA2 Change from baseline at week 2, Median: -2.40 ng/mL
  sPLA2 Change from baseline at week 2, Range: -3.70 to -0.40 ng/mL
  sPLA2 Change from baseline at week 4, Mean: -2.76 ng/mL
  sPLA2 Change from baseline at week 4, Median: -2.60 ng/mL
  sPLA2 Change from baseline at week 4, Range: -4.40 to -0.90 ng/mL
  sPLA2 level, Baseline, Mean: 2.91 ng/mL
  sPLA2 level, Baseline, Median: 3.20 ng/mL
  sPLA2 level, Baseline, Range: 1.00 to 4.90 ng/mL
  sPLA2 level, Week 2, Mean: 0.48 ng/mL
  sPLA2 level, Week 2, Median: 0.30 ng/mL
  sPLA2 level, Week 2, Range: 0.05 to 1.20 ng/mL
  sPLA2 level, Week 4, Mean: 0.51 ng/mL
  sPLA2 level, Week 4, Median: 0.60 ng/mL
  sPLA2 level, Week 4, Range: 0.05 to 1.00 ng/mL
[6]
  sPLA2 Change from baseline at week 2, Mean: -1.81 ng/mL
  sPLA2 Change from baseline at week 2, Median: -1.80 ng/mL
  sPLA2 Change from baseline at week 2, Range: −3.70 to +2.85 ng/ml
  sPLA2 Change from baseline at week 4, Mean: -2.46 ng/mL
  sPLA2 Change from baseline at week 4, Median: -2.50 ng/mL
